Data as given in patent US6358993B1, “Pharmaceutically active nitrogen ring compounds and methods of use thereof” (CeNes Pharmaceuticals, Inc., priority 1996, dated 2002).
Counter-ions that a name gives are not always drawn.

How the values were obtained:
DBA/2 mice = assay: In vivo anticonvulsant activity in the DBA/2 mouse model (mouse audiogenic assay); settings: 30 minutes before auditory stimulus, inhibition relative to vehicle
Experimental: As discussed above, preferred compounds of the invention in a standard anticonvulsant in vivo audiogenic test, such as the audiogenic mouse assay of Example 48 which follows, where DBA/2 mice about 20-23 days old are injected intraperitoneally with a test compound 30 minutes prior to being placed in a bell jar with exposure to auditory stimulus of 12 KHz sine wave at 110-120 db. References herein in vivo “audiogenic assay” are intended to refer to that protocol. […] As discussed above, activity in the audiogenic assay has been recognized as indicative that a test compound has neuroprotective properties. See, e.g., M. Tricklebank et al., European Journal of Pharmacology, supra; T. Seyfried, Federation Proceedings, supra.
In vivo Anticonvulsant Activity in the DBA/2 Mouse Model (Mouse Audiogenic Assay)
Compounds were tested for their effectiveness in preventing seizures in DBA/2 mice which have a unique sensitivity to auditory stimulation. Exposure to loud high-frequency sounds can trigger seizure activity in these animals. This sensitivity develops from postnatal day 12 and peaks around day 21 and slowly diminishes as the animals mature. The unusual response to auditory stimulation in this strain of mouse is believed to be due to a combination of early myelination (causing an unusually low excitatory threshold) and delayed development of inhibitory mechanisms.
Mice were injected intraperitoneally with the compound specified in Table I below or with vehicle control, 30 minutes prior to being placed in a bell jar and turning on the auditory stimulus (12 KHz sine wave at 110-120 db). Administered doses are specified in Table I as milligram of compound per kilogram bodyweight of mouse. The auditory stimulus was left on for 60 seconds and mice reactions were timed and recorded. “FB” refers to free base.

mouse audiogenic tests = settings: in vivo; cited from earlier work
in vivo models of stroke = settings: cited from earlier work
[1] = in vivo; cited from earlier work

| Compound | Audiogenic Response % Inhib. (DBA/2 mice; dose 10 mg/kg i.p.) [%] | Audiogenic Response % Inhib. (DBA/2 mice; dose 20 mg/kg i.p.) [%] | also measured |
| --- | --- | --- | --- |
| N=C(Nc1cc(Br)ccc1Br)N1CCCc2ccc(C(F)(F)F)cc21 (as salt: hydrochloride) [Example 35, N-(2,5-dibromophenyl)-(7-trifluoromethyl-1,2,3,4-tetrahydroquinolinyl)carboximidamide Hydrochloride] | – | – | melting point: 201 to 202 °C |
| N=C(N)N1Cc2ccccc2CCc2ccccc21 (as salt: hydrochloride) [Example 41, 5,6,11,12-tetrahydrodibenz[b,f]azocin-carboximidanmide.hydrochloride] | – | – | melting point: 238 to 240 °C |
| N=C(Nc1cccc2ccccc12)N1CCc2ccccc21 [Example 2, N-(1-Naphthyl)-1-indolinylcarboximidamide] | 100 | – | Audiogenic Response % Inhib. (DBA/2 mice; dose 2 mg/kg i.p.): 82% |
| CS(=O)(=O)O.N=C(Nc1ccc(OCc2ccccc2)cc1)N1CCc2ccccc21 [Example 4, N-(4-Benzyloxyphenyl)-1-indolinylcarboximidamide.mesylate] | – | 32 | – |
| COc1ccc(NC(=N)N2CCc3ccccc32)c2ccccc12.CS(=O)(=O)O [Example 5, N-(4-Methoxynaphthyl)-1-indolinylcarboxidamide.mesylate] | 68 | 87 | Audiogenic Response % Inhib. (DBA/2 mice; dose 5 mg/kg i.p.): 50% |
| N=C(Nc1ccc(Cl)c(Cl)c1)N1CCc2ccccc21 [Example 6, N-(3,4-Dichlorophenyl)-1-indolinylcarboximidamide] | 41 | 83 | – |
| CCc1cccc2c1N(C(=N)Nc1cccc3ccccc13)CC2 [Example 9, N-(1-Naphthyl)-1-(7-ethyl)-indolinylcarboximidaide] | – | 28 | – |
| Cl.N=C(Nc1cccc(Cl)c1Cl)N1CCc2ccccc21 [Example 11, N-(2,3-dichiorophenyl)-1-indolinylcarboximidamide.HCl] | 55 | – | – |
| Cc1cccc(NC(=N)N2CCc3ccccc32)c1C.Cl [Example 12, N-(2,3-dimethylphenyl)-1-indolinylcarboximidamide.HCl] | 88 | – | Audiogenic Response % Inhib. (DBA/2 mice; dose 2 mg/kg i.p.): 23%; Audiogenic Response % Inhib. (DBA/2 mice; dose 5 mg/kg i.p.): 67% |
| Cl.N=C(Nc1cccc2c1CCCC2)N1CCc2ccccc21 [Example 13, N-(5,6,7,8-tetrahydro-1-naphthyl)-1-indolinylcarboximidamide.HCl] | 48 | 80 | – |
| CCc1ccc(Cl)c(NC(=N)N2CCCc3ccc(C(F)(F)F)cc32)c1.Cl [Example 19, N-(2-chloro-5-ethylphenyl)-[(7-trifluoromethyl)-1,2,3,4-tetrahydroquinolinyl]carboximidamiide.HCl] | 44 | 91 | – |
| Cl.N=C(Nc1cccc2ccccc12)N1CCCc2ccc(C(F)(F)F)cc21 [Example 20] | – | – | Audiogenic Response % Inhib. (DBA/2 mice; dose 4 mg/kg i.p.): 13% |
| Cl.N=C(Nc1cccc2ccccc12)N1CCCc2ccccc21 [Example 21, N-(1-naphthyl)-(1,2,3,4-tetrahydroquinolinyl)carboximidamide.HCl] | – | – | Audiogenic Response % Inhib. (DBA/2 mice; dose 1 mg/kg i.p.): 13%; Audiogenic Response % Inhib. (DBA/2 mice; dose 2 mg/kg i.p.): 62%; Audiogenic Response % Inhib. (DBA/2 mice; dose 4 mg/kg i.p.): 88% |
| Cl.N=C(Nc1cccc(-c2ccccc2)c1)N1Cc2cccc3cccc1c23 [Example 22, N-(3-biphenyl)-1-(benz[cd]indolinyl)carboximdamide.HCl] | 23 | – | – |
| Cc1ccccc1NC(=N)N1Cc2cccc3cccc1c23.Cl [Example 23, N-(2-tolyl)-1-(benz[cd]indolinyl)carboximidamnide.HCl] | – | – | Audiogenic Response % Inhib. (DBA/2 mice; dose 1 mg/kg i.p.): 53%; Audiogenic Response % Inhib. (DBA/2 mice; dose 2 mg/kg i.p.): 61%; Audiogenic Response % Inhib. (DBA/2 mice; dose 4 mg/kg i.p.): 95% |
| Cc1ccc(C)c(NC(=N)N2Cc3cccc4cccc2c34)c1.Cl [Example 25, N-(2,5-dimethylphenyl)-1-benz[cd]indolinylcarboximidamide.HCl] | 76 | – | Audiogenic Response % Inhib. (DBA/2 mice; dose 5 mg/kg i.p.): 59% |
| Cc1ccc2c(c1)CCCN2C(=N)Nc1cccc2ccccc12.Cl [Example 33, N-(1-naphthyl)-(6-methyl-1,2,3,4-tetrahydroquinolinyl)carboximidamide Hydrochloride] | – | – | Audiogenic Response % Inhib. (DBA/2 mice; dose 4 mg/kg i.p.): 62% |
| C[C@]12N[C@H](Cc3ccccc31)c1ccccc12 [MK-801] | – | – | activity in mouse audiogenic tests (mouse audiogenic tests): good activity; results in in vivo models of stroke (in vivo models of stroke): good results; toxicity [1]: has shown toxicity |
| N=C(Nc1cccc2ccccc12)N1CCc2ccccc2C1 [N-(1-naphthyl)-1,2,3,4-tetrahydroisoquinolinyl)carboximidamide] | – | 41 | – |
| N-(2-biphenyl)-1-indolinylcarboximidamide.HCl [Example 14] | – | 56 | – |
| N-(5-Acenaphthyl)-1-(5-bromo)-indolinylcarboximidamide [Example 8] | – | 11 | – |
| N-(5-Acenaphthyl)-1-(5-methoxy)-1-indolinylcarboximidamide.HCl [Example 7] | 21 | – | – |
